Data on one molecule can be found in paper PMC9225715, “Development of PD3 and PD3-B for PDEδ inhibition to modulate KRAS activity” (Journal of Enzyme Inhibition and Medicinal Chemistry, 2022).

In data set [1] the target is T1, PDEδ (Homo sapiens, UniProt O43924).
T1 construct: made in house; host or cells: E. coli BL21(DE3)
The data set can be described thus: Fluorescence polarisation (FP)-based binding assay. How it is done: To evaluate the binding affinities of PDs to PDEδ, we also carried out a fluorescence polarisation (FP)-based binding assay after incubation of PDs with PDEδ. […] In the presence of 0.5 µM PD compounds, the polarisation value (mP value) increased following treatment with purified PDEδ in a dose-dependent manner until treatment with excess PDEδ induced saturation of binding. Among the tested compounds, 8 compounds were selected for further evaluation and SAR analysis. The binding curves for the selected 8 compounds are shown with their Kd values in Supplemental Figure S3.
(§1) Figure 3. Binding affinities of PDs measured by fluorescence polarisation. (A) Representative binding curve of PDs (PD3) titrated with PDEδ. The FP value was measured in PBS buffer (pH 7.2) containing 8 concentrations (0, 0.5, 1, 2, 4, 8, 16 and 32 μM) of PDEδ mixed with 0.5 μM PDs. Ex: 440 nm, Em: 526 nm; (B) Kd value and half-life of each compound; (C, D) Kinetic trace of PD3 and PD7 in the competition assay. PD3 was shown as a compound with the longest retention time (slow dissociation), whereas PD7 was shown as a compound with the shortest retention time (fast dissociation). The half-life was obtained by a competition binding assay using excess deltarasin. The optimal concentration of PDEδ for the competition assay was determined using the Kd value and PD concentration (0.5 μM) for making more than 68% of the binding complex. Ex: 430 nm, Em: 520 nm. TEXT PRINTED IN THE PICTURE: (A) PD3: Best-fit values Bmax: 261.7; Best-fit values Kd: 0.4991; Std. Error Bmax: 17.98; Std. […] Error Bmax 17.98 (last digit 8 or 6) and Std. Error Kd 0.1956 (5 and 6 not certain) / Panels C and D: k and half-life are printed without a label of their own; assigned to PD3 and PD7 from the panel legends (PDEδ+PD3+Del, PDEδ+PD7+Del)
PDEδ was diluted to make a series of two-fold dilutions with a starting concentration of 32 µM. The diluted solution was mixed with PBS buffer [137 mM NaCl, 2.7 mM KCl, 10 mM Na2HPO4, 2 mM KH2PO4 (pH 7.2)] and then the mixture was loaded on a 96 well black plate (SPL life Science, Gyeonggi-do, Republic of Korea). Compounds were transferred to the wells of assay plate and the final concentration of compounds was fixed to 0.5 µM. After the addition of the compound, the assay plates were incubated for 2 h at 4 °C. FP values were detected by SpectraMax M5 microplate reader (Molecular Devices, San Jose, CA) at the maximum absorption and emission wavelengths of PD compounds in assay buffer. Kd values were determined by previously reported method.

Data set [2] deals with T1, PDEδ. Briefly: FP-based competition binding assay using excess deltarasin. As to the method: as §1
To confirm that the PD compound occupies the same farnesylation binding site as deltarasin in PDEδ and to exclude the possibility that the FP signal resulted from non-specific hydrophobic interactions, we carried out a FP-based competition assay. PDs (0.5 µM) were incubated with the purified PDEδ protein for 2 h to ensure complete binding between the compound and the protein. Then, deltarasin was added to replace the PD compound in the prenyl binding pocket of PDEδ, which decreased the FP due to the free rotation of the released PD compound. As shown in Figure 3(B), the reverse correlation between Kd values and half-lives was observed (Figure 3(B) and Table 1). […] The rate constants and half-lives were measured only when the increased concentration of deltarasin produced concentration-independent kinetic parameters, which reflects complete displacement of the binding site with the deltarasin. The kinetic trace was fit to a single exponential decay to generate the dissociation rate constant and half-life. Given that the Kd value is a ratio of koff/kon in a simple bimolecular binding model, the measured half-life and Kd are not always matched due to the contribution from the association rate constant. Figure 3(C) (PD3) and 3 D (PD7) show a representative kinetic trace obtained in the competition assay.
Deltarasin, a well-known PDEδ inhibitor, was purchased from Chemietek (Indianapolis, IN) for the competition assay. Assay buffer and the plate were the same as used in fluorescence polarisation assay. The optimal concentration of PDEδ was determined based on the Kd values and ligand concentration (0.5 µM) to ensure the formation of ligand-protein complex. The mixture of PDEδ and compounds were incubated for 2 h at 4 °C. After adding deltarasin to the mixture, FP was immediately recorded by SpectraMax M5 microplate reader (Molecular Devices, San Jose, CA) with excitation at 430 nm and emission at 520 nm. In SpectraMax M5 microplate reader, single excitation and emission wavelengths need to be used for testing all compounds. Therefore, Ex 430/Em 520 was used for competition binding assay. The selected ex/em wavelengths have only a difference of less than 10 nm from the maximum wavelengths, and there was no critical issue for conducting assay. The kinetic trace was fit to a single exponential decay to generate dissociation rate constant and half-life.

Structures are written as SMILES. Like-named read-outs stand apart in the source and are kept apart here.

`Cc1ccc(-c2nc3ccccc3c3cc4ccccn4c23)cc1` [PD3, 6-(p-tolyl)indolizino[3,2-c]quinoline]: the Kd on PDEδ [1] (0.5 µM PD titrated with PDEδ, PBS pH 7.2, mean ± SD of three independent experiments, read-out: Kd value) amounted to 491 ± 12 nM; at PDEδ [1] (representative binding curve, Figure 3(A) inset, read-out: Best-fit values Kd), 499 nM. Besides, the Half-life is recorded as 45 min on PDEδ [2] (representative kinetic trace, single exponential decay) and 41 ± 6 min at PDEδ [2] (retention in PDEδ on displacement by excess deltarasin, 0.5 µM PD, mean ± SD of three independent experiments). Also, at PDEδ [2] (representative kinetic trace, single exponential decay, read-out: dissociation rate constant k (converted)), the koff is 0.00025 s⁻¹.
